According to ChEMBL document CHEMBL3259791, “Discovery of (E)-3-((styrylsulfonyl)methyl)pyridine and (E)-2-((styrylsulfonyl)methyl)pyridine derivatives as anticancer agents: synthesis, structure-activity relationships, and biological activities” (J Med Chem, 2014):

Tests used:
Format in all cases: functional
A2780 [1] = test: Cell cycle arrest in human A2780 cells assessed as accumulation at G2/M phase at […] after 24 hrs by flow cytometric analysis (reference value: 21.81%)
HCT-116 = test: Antiproliferative activity against human HCT116 cells assessed as cell growth inhibition after 72 hrs by MTT assay; conditions: HCT-116, 72 h
A2780 [2] = test: Induction of apoptosis in human A2780 cells assessed as late-stage apoptotic cells at […] after 48 hrs by annexin V/PI double staining (reference value: 10.20%)
A2780 [3] = test: Induction of apoptosis in human A2780 cells assessed as early-stage apoptotic cells at 0.06 uM after 48 hrs by annexin V/PI double staining (reference value: 7.13%)
A2780 [4] = test: Cell cycle arrest in human A2780 cells assessed as accumulation at G2/M phase at 1 uM after 24 hrs by flow cytometric analysis (reference value: 21.81%)
A2780 [5] = test: Cell cycle arrest in human A2780 cells assessed as accumulation at G1 phase at 0.06 uM after 24 hrs by flow cytometric analysis (reference value: 54.89%)
A2780 [6] = test: Induction of apoptosis in human A2780 cells assessed as viable cells at […] after 48 hrs by annexin V/PI double staining (reference value: 82.12%); conditions: A2780, 48 h, read-out: Activity
A2780 [7] = test: Induction of apoptosis in human A2780 cells assessed as necrotic cells at […] after 48 hrs by annexin V/PI double staining (reference value: 0.53%)
WI-38 [8] = test: Cell cycle arrest in human WI38 cells assessed as accumulation at G1 phase at 1 uM after 24 hrs by flow cytometric analysis (reference value: 55.89%)
WI-38 [9] = test: Antiproliferative activity against human WI38 cells assessed as cell growth inhibition after 72 hrs by MTT assay; conditions: WI-38, 72 h
MDA-MB-231 = test: Antiproliferative activity against ER negative human MDA-MB-231 cells assessed as cell growth inhibition after 72 hrs by MTT assay; conditions: MDA-MB-231, 72 h
WI-38 [10] = test: Induction of apoptosis in human WI38 cells assessed as viable cells at 1 uM after 48 hrs by annexin V/PI double staining (reference value: 80.59%); conditions: WI-38, 48 h, read-out: Activity
WI-38 [11] = test: Induction of apoptosis in human WI38 cells assessed as viable cells at […] after 48 hrs by annexin V/PI double staining (reference value: 80.59%); conditions: WI-38, 48 h, read-out: Activity
A2780 [12] = test: Induction of apoptosis in human A2780 cells assessed as late-stage apoptotic cells at 0.06 uM after 48 hrs by annexin V/PI double staining (reference value: 10.20%)
A2780 [13] = test: Cell cycle arrest in human A2780 cells assessed as accumulation at G1 phase at 1 uM after 24 hrs by flow cytometric analysis (reference value: 54.89%)
WI-38 [14] = test: Cell cycle arrest in human WI38 cells assessed as accumulation at subG1 phase at 1 uM after 24 hrs by flow cytometric analysis (reference value: 10.53%)
WI-38 [15] = test: Cell cycle arrest in human WI38 cells assessed as accumulation at S phase at 1 uM after 24 hrs by flow cytometric analysis (reference value: 16.25%)
A2780 [16] = test: Cell cycle arrest in human A2780 cells assessed as accumulation at S phase at […] after 24 hrs by flow cytometric analysis (reference value: 22.72%)
MCF7 [17] = test: Antiproliferative activity against ER positive human MCF7 cells assessed as cell growth inhibition after 72 hrs by MTT assay; conditions: MCF7, 72 h
A2780 [18] = test: Induction of apoptosis in human A2780 cells assessed as early-stage apoptotic cells at 1 uM after 48 hrs by annexin V/PI double staining (reference value: 7.13%)
A2780 [19] = test: Induction of apoptosis in human A2780 cells assessed as necrotic cells at 1 uM after 48 hrs by annexin V/PI double staining (reference value: 0.53%)
A2780 [20] = test: Antiproliferative activity against human A2780 cells assessed as cell growth inhibition after 72 hrs by MTT assay; conditions: A2780, 72 h
WI-38 [21] = test: Cell cycle arrest in human WI38 cells assessed as accumulation at G1 phase at […] after 24 hrs by flow cytometric analysis (reference value: 55.89%)
A2780 [22] = test: Cell cycle arrest in human A2780 cells assessed as accumulation at subG1 phase at 0.06 uM after 24 hrs by flow cytometric analysis (reference value: 0.62%)
WI-38 [23] = test: Cell cycle arrest in human WI38 cells assessed as accumulation at S phase at […] after 24 hrs by flow cytometric analysis (reference value: 16.25%)
LNCaP = test: Antiproliferative activity against AR positive human LNCAP cells assessed as cell growth inhibition after 72 hrs by MTT assay
WI-38 [24] = test: Induction of apoptosis in human WI38 cells assessed as late-stage apoptotic cells at […] after 48 hrs by annexin V/PI double staining (reference value: 16.26%)
WI-38 [25] = test: Cell cycle arrest in human WI38 cells assessed as accumulation at S phase at 0.06 uM after 24 hrs by flow cytometric analysis (reference value: 16.25%)
WI-38 [26] = test: Induction of apoptosis in human WI38 cells assessed as necrotic cells at […] after 48 hrs by annexin V/PI double staining (reference value: 0.99%)
WI-38 [27] = test: Induction of apoptosis in human WI38 cells assessed as late-stage apoptotic cells at 1 uM after 48 hrs by annexin V/PI double staining (reference value: 16.26%)
WI-38 [28] = test: Cell cycle arrest in human WI38 cells assessed as accumulation at G2/M phase at […] after 24 hrs by flow cytometric analysis (reference value: 17.36%)
WI-38 [29] = test: Induction of apoptosis in human WI38 cells assessed as late-stage apoptotic cells at 0.06 uM after 48 hrs by annexin V/PI double staining (reference value: 16.26%)
A2780 [30] = test: Induction of apoptosis in human A2780 cells assessed as necrotic cells at 0.06 uM after 48 hrs by annexin V/PI double staining (reference value: 0.53%)
WI-38 [31] = test: Cell cycle arrest in human WI38 cells assessed as accumulation at G1 phase at 0.06 uM after 24 hrs by flow cytometric analysis (reference value: 55.89%)
HeLa = test: Antiproliferative activity against human HeLa cells assessed as cell growth inhibition after 72 hrs by MTT assay
WI-38 [32] = test: Induction of apoptosis in human WI38 cells assessed as necrotic cells at 0.06 uM after 48 hrs by annexin V/PI double staining (reference value: 0.99%)
MCF7 [33] = test: Antiproliferative activity against human MCF7 cells assessed as cell growth inhibition after 72 hrs by MTT assay; conditions: MCF7, 72 h
A2780 [34] = test: Cell cycle arrest in human A2780 cells assessed as accumulation at S phase at 1 uM after 24 hrs by flow cytometric analysis (reference value: 22.72%)
[35] = Antiproliferative activity against human PANC1 cells assessed as cell growth inhibition after 72 hrs by MTT assay; conditions: PANC-1, 72 h

Row | SMILES | Activity (A2780 [1]) [%] | GI50 (HCT-116) [nM] | Activity (A2780 [2]) [%] | Activity (A2780 [3]) [%] | Activity (A2780 [4]) [%] | Activity (A2780 [5]) [%] | viability at […] (A2780 [6]) [%] | Activity (A2780 [7]) [%] | Activity (WI-38 [8]) [%] | GI50 (WI-38 [9]) [nM] | GI50 (MDA-MB-231) [nM] | viability at 1 µM (WI-38 [10]) [%] | viability at […] (WI-38 [11]) [%] | Activity (A2780 [12]) [%] | Activity (A2780 [13]) [%] | Activity (WI-38 [14]) [%] | Activity (WI-38 [15]) [%] | Activity (A2780 [16]) [%] | GI50 (MCF7 [17]) [nM] | Activity (A2780 [18]) [%] | further results
1 | COc1cc(OC)c(/C=C/S(=O)(=O)Cc2ccc(OC)c(NS(C)(=O)=O)n2)c(OC)c1 | 19.36 | 610 | 5.88 | 4.67 | 59.38 | 57.73 | 88 | 0.48 | 58.17 | > 10000 | 641 | 67 | 84.4 | 7.36 | 14.2 | 5.66 | 9.93 | 22.53 | 468 | 38.36 | Activity (A2780 [19]): 1.31%; GI50 (A2780 [20]): 406 nM; Activity (WI-38 [21]): 61.63%; Activity (A2780 [22]): 0.95%; Activity (WI-38 [23]): 13.26%; GI50 (LNCaP): 450 nM; Activity (WI-38 [24]): 11.58%; Activity (WI-38 [25]): 14.51%; Activity (WI-38 [26]): 1.11%; Activity (WI-38 [27]): 21.15%; Activity (WI-38 [28]): 14.08%; Activity (WI-38 [29]): 18.51%; Activity (A2780 [30]): 0.55%; Activity (WI-38 [31]): 51.48%; GI50 (HeLa): 556 nM; Activity (WI-38 [32]): 0.86%; GI50 (MCF7 [33]): 468 nM; Activity (A2780 [34]): 19.16%; GI50 [35]: 604 nM
2 | COc1cc(OC)c(/C=C/S(=O)(=O)Cc2ccc(OC)c(NCC(=O)O)c2)c(OC)c1 [RIGOSERTIB] | 31.77 | 70 | 14.92 | 3.82 | 60.57 | 53.41 | 46.2 | 0.71 | 53.8 | > 10000 | 57 | 65.7 | 73.2 | 6.27 | 5.37 | 6.57 | 10.36 | 24.81 | 50 | 50.22 | Activity (A2780 [19]): 1.19%; GI50 (A2780 [20]): 62 nM; Activity (WI-38 [21]): 54.39%; Activity (A2780 [22]): 0.63%; Activity (WI-38 [23]): 9.32%; GI50 (LNCaP): 25 nM; Activity (WI-38 [24]): 19.49%; Activity (WI-38 [25]): 11.86%; Activity (WI-38 [26]): 1.89%; Activity (WI-38 [27]): 22.43%; Activity (WI-38 [28]): 26.83%; Activity (WI-38 [29]): 11.54%; Activity (A2780 [30]): 0.34%; Activity (WI-38 [31]): 64.47%; GI50 (HeLa): 12 nM; Activity (WI-38 [32]): 1.25%; GI50 (MCF7 [33]): 50 nM; Activity (A2780 [34]): 33.83%; GI50 [35]: 39 nM
3 | COc1cc(OC)c(/C=C/S(=O)(=O)Cc2ccc(OC)c(N)n2)c(OC)c1 | 50.94 | 8 | 25.61 | 38 | 59.78 | 12.87 | 25.3 | 1.97 | 60.09 | > 10000 | 7 | 79.8 | 84.4 | 25.69 | 13.02 | 8.09 | 6.87 | 22.54 | 6 | 55.45 | Activity (A2780 [19]): 1.11%; GI50 (A2780 [20]): 7 nM; Activity (WI-38 [21]): 53.55%; Activity (A2780 [22]): 10.06%; Activity (WI-38 [23]): 9.5%; GI50 (LNCaP): 3 nM; Activity (WI-38 [24]): 8.7%; Activity (WI-38 [25]): 9.81%; Activity (WI-38 [26]): 5.41%; Activity (WI-38 [27]): 15.52%; Activity (WI-38 [28]): 24.87%; Activity (WI-38 [29]): 13.04%; Activity (A2780 [30]): 2.88%; Activity (WI-38 [31]): 54.04%; GI50 (HeLa): < 1 nM; Activity (WI-38 [32]): 3.39%; GI50 (MCF7 [33]): 6 nM; Activity (A2780 [34]): 24.49%; GI50 [35]: < 1 nM
